One assay deals with T1, Adrenergic β2 (Homo sapiens, UniProt P07550).
T1 construct: Adherent H292 cells are removed from tissue culture flasks by treatment with Accutase™ cell detachment solution; endogenous in cells; host or cells: H292 cells
As to the kind of experiment: Adrenergic β2 mediated cAMP production in H292 cells (AlphaScreen), concentration response. To be noted: for EC50: 60 min, 300 μM rolipram, read-out: β2 pEC50 (converted); for β2 Intrinsic Activity: fraction relative to the maximum activity determined for formoterol. In kind it is cell-based. On the procedure: Assay for Adrenergic 132 Mediated cAMP Production
H292 cells are grown in 225 cm2 flasks incubator at 37° C., 5% CO2 in RPMI medium containing 10% (v/v) FBS (foetal bovine serum) and 2 mM L-glutamine.
Adherent H292 cells re removed from tissue culture flasks by treatment with Accutase™ cell detachment solution for 15 minutes. Flasks are incubated for 15 minutes in a humidified incubator at 37° C., 5% CO2. Detached cells are re-suspended in RPMI media (containing 10% (v/v) FBS and 2 mM L-glutamine) at 0.1×10^6 cells per mL. 10000 cells in 100 μl, are added to each well of a tissue-culture-treated 96-well plate and the cells incubated overnight in a humidified incubator at 37° C., 5% CO2. The culture media is removed and cells are washed twice with 100 μL assay buffer and replaced with 50 μl assay buffer (HBSS solution containing 10 mM HEPES pH7.4 and 5 mM glucose). Cells are rested at room temperature for 20 minutes after which time 25 μl of rolipram (1.2 mM made up in assay buffer containing 2.4% (v/v) dimethylsulphoxide) is added. Cells are incubated with rolipram for 10 minutes after which time test compounds are added and the cells are incubated for 60 minutes at room temperature. The final rolipram concentration in the assay is 300 μM and final vehicle concentration is 1% (v/v) dimethylsulphoxide. The reaction is stopped by removing supernatants, washing once with 100 μL assay buffer and replacing with 50 μL lysis buffer. The cell monolayer is frozen at −80° C. for 30 minutes (or overnight).
AlphaScreen™ cAMP detection
The concentration of cAMP (cyclic adenosine monophosphate) in the cell lysate is determined using AlphaScreen™ methodology. The frozen cell plate is thawed for 20 minutes on a plate shaker then 10 μL of the cell lysate is transferred to a 96-well white plate. 40 μL of mixed AlphaScreen™ detection beads pre-incubated with biotinylated cAMP, is added to each well and the plate incubated at room temperature for 3 hours in the dark. The AlphaScreen™ signal is measured using an EnVision spectrophotometer (Perkin-Elmer Inc.) with the recommended manufacturer's settings. cAMP concentrations are determined by reference to a calibration curve determined in the same experiment using standard cAMP concentrations. Concentration response curves for agonists are constructed and data is fitted to a four parameter logistic equation to determine both the pEC50 and Intrinsic Activity. Intrinsic Activity is expressed as a fraction relative to the maximum activity determined for formoterol in each experiment.
(In general: cAMP levels reflect the balance of adenylyl cyclase and phosphodiesterase activity.)

Assay [1] concerns the target T2, human muscarinic acetylcholine M3 receptor (Homo sapiens, UniProt P20309).
T2 construct: expressed in transfected cells; host or cells: CHO-K1 (Chinese Hamster Ovary) cell membranes
As to the kind of experiment: Muscarinic 3 receptor binding assay ([3H]NMS competition, SPA), pIC50. The note with it: [3H]NMS 0.1 nM, CHO-K1 cell membranes expressing human M3 receptor. Here is the method:
Muscarinic 3 Receptor Binding Assay
The affinity (pIC50) of compounds binding to the M3 receptor is determined by competition binding of [^3H]N-methyl scopolamine (NMS) to CHO-K1 (Chinese Hamster Ovary) cell membranes expressing the human muscarinic acetylcholine M3 receptor (M3-ACh) in a scintillation proximity assay (SPA) format.
SPA beads are precoated with membranes and then incubated at 2 mg of beads per well with serial dilutions of compounds of the invention, [^3H]NMS at 0.1 nM, quarter Kd (experimentally determined dissociation constant) and assay buffer (20 mM HEPES pH 7.4 containing 5 mM MgCl2 and 0.1% (w/v) bovine serum albumin). The assay is conducted in a final volume of 200 μL, in the presence of 1% (v/v) dimethyl sulphoxide (DMSO). Total binding of [^3H]NMS is determined in the absence of competing compound and non-specific binding of [^3H]NMS is determined in the presence of 1 μM atropine. The plates are incubated for 16 hours at room temperature and then read on Wallac Microbeta™ using a normalised ^3H protocol. The pIC50, defined as the negative logarithm of the molar concentration of compound required for 50% reduction in specific [^3H]-NMS binding, is determined.

T2 sequence (P20309 whole entry): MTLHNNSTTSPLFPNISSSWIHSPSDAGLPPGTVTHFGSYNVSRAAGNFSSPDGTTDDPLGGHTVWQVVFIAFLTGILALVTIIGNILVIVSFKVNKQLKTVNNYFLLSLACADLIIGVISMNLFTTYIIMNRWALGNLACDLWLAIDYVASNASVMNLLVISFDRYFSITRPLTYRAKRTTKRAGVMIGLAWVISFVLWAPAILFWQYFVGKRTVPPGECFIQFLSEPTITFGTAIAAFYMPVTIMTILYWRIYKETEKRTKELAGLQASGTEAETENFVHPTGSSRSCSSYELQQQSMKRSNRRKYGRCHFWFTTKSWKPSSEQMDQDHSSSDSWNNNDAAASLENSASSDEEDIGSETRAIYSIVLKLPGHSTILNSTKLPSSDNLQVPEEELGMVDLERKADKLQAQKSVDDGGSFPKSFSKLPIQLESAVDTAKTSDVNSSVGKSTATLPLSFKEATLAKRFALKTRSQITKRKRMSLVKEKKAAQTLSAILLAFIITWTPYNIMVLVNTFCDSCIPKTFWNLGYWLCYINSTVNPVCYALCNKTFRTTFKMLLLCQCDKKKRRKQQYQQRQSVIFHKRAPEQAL
T1 sequence (P07550 whole entry): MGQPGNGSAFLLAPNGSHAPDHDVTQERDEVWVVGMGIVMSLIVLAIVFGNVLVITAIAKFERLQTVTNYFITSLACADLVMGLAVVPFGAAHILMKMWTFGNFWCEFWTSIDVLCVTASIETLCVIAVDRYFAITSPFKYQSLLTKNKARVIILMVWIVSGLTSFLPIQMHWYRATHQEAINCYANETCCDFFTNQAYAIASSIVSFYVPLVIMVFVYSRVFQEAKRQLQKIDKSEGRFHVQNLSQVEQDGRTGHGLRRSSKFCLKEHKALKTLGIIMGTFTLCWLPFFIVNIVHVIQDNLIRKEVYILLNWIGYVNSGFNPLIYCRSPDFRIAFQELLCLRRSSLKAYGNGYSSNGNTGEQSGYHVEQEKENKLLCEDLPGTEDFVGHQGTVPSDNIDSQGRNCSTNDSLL

The term IC50 denotes the point on the concentration scale where inhibition reaches its midpoint. Higher therefore signals a need for much substance. As for `COc1cccc(CN(CCNCCc2ccc(O)c3c2OCC(=O)N3)C(=O)CCOCCc2cccc(CN3CCC4(CC3)CN(C(=O)c3csc(C(C)C)n3)CCO4)c2F)c1` [Example 23, 3-(2-Fluoro-3-((4-(2-Isopropylthiazole-4-carbonyl)-1-oxa-4,9-diazaspiro[5.5]undecan-9-yl)methyl)phenethoxy)-N-(2-(2-(5-hydroxy-3-oxo-3,4-dihydro-2H-benzo[b][1,4]oxazin-8-yl)ethylamino)ethyl)-N-(3-methoxybenzyl)propanamide ditrifluoroacetate], at Adrenergic β2, the EC50 is 79.4 nM and the “β2 Intrinsic Activity” value is recorded as 1.2. The IC50 in assay [1] is 0.316 nM.

Regarding `CCc1cc(C(=O)N2CCOC3(CCN(Cc4cccc(CCOCCC(=O)N(CC)CCNCCc5ccc(O)c6c5OCC(=O)N6)c4F)CC3)C2)cs1` [Example 24, N-Ethyl-3-(3-((4-(5-ethylthiophene-3-carbonyl)-1-oxa-4,9-diazaspiro[5.5]undecan-9-yl)methyl)-2-fluorophenethoxy)-N-(2-(2-(5-hydroxy-3-oxo-3,4-dihydro-2H-benzo[b][1,4]oxazin-8-yl)ethylamino)ethyl)propanamide ditrifluoroacetate], at Adrenergic β2, the EC50 is 79.4 nM and the “β2 Intrinsic Activity” value amounted to 0.9. The IC50 in assay [1] was 1 nM.

With `CCN(CCNCCc1ccc(O)c2c1OCC(=O)N2)C(=O)CCOCCc1cccc(CN2CCC3(CC2)CN(C(=O)c2csc(C4CCCC4)n2)CCO3)c1F` [Example 25, 3-(3-((4-(2-Cyclopentylthiazole-4-carbonyl)-1-oxa-4,9-diazaspiro[5.5]undecan-9-yl)methyl)-2-fluorophenethoxy)-N-ethyl-N-(2-(2-(5-hydroxy-3-oxo-3,4-dihydro-2H-benzo[b][1,4]oxazin-8-yl)ethylamino)ethyl)propanamide ditrifluoroacetate], at Adrenergic β2, the EC50 is 39.8 nM and the “β2 Intrinsic Activity” value is recorded as 0.8. For the same compound, the IC50 in assay [1] was 0.158 nM.

Consider `CCc1nc(C(=O)N2CCOC3(CCN(Cc4cccc(CCOCCC(=O)N(CC)CCNCCc5ccc(O)c6[nH]c(=O)sc56)c4Cl)CC3)C2)cs1` [Example 26, 3-(2-Chloro-3-((4-(2-ethylthiazole-4-carbonyl)-1-oxa-4,9-diazaspiro[5.5]undecan-9-yl)methyl)phenethoxy)-N-ethyl-N-(2-(2-(4-hydroxy-2-oxo-2,3-dihydrobenzo[d]thiazol-7-yl)ethylamino)ethyl)propanamide ditrifluoroacetate], for which, at Adrenergic β2, the EC50 was 7.94 nM and the “β2 Intrinsic Activity” value was found to be 0.8. In assay [1], the IC50 is 0.631 nM.

For the compound `CC(C)c1nc(C(=O)N2CCOC3(CCN(Cc4cccc(CCOCCC(=O)N(CCNCCc5ccc(O)c6c5OCC(=O)N6)C5CCCCC5)c4Cl)CC3)C2)cs1` [Example 27, 3-(2-Chloro-3-((4-(2-isopropylthiazole-4-carbonyl)-1-oxa-4,9-diazaspiro[5.5]undecan-9-yl)methyl)phenethoxy)-N-cyclohexyl-N-(2-(2-(5-hydroxy-3-oxo-3,4-dihydro-2H-benzo[b][1,4]oxazin-8-yl)ethylamine)ethyl)propanamide ditrifluoroacetate], on Adrenergic β2, the EC50 was 20 nM and the “β2 Intrinsic Activity” value is 0.9. In assay [1], this compound showed a 50% inhibitory concentration (IC50) of 2 nM.

For the compound `CCN(CCNCCc1ccc(O)c2[nH]c(=O)sc12)C(=O)CCOCCc1cccc(CN2CCC3(CC2)CN(C(=O)c2csc(C(C)C)n2)CCO3)c1Cl` [Example 28, 3-(2-Chloro-3-((4-(2-isopropylthiazole-4-carbonyl)-1-oxa-4,9-diazaspiro[5.5]undecan-9-yl)methyl)phenethoxy)-N-ethyl-N-(2-(2-(4-hydroxy-2-Oxo-2,3-dihydrobenzo[d]thiazol-7-yl)ethylamino)ethyl)propanamide ditrifluoroacetate], at Adrenergic β2, the EC50 was 12.6 nM and the “β2 Intrinsic Activity” value came to 0.8. The IC50 in assay [1] is 2 nM.

Turning to `CCCN(CCNCCc1ccc(O)c2c1OCC(=O)N2)C(=O)CCOCCc1cccc(CN2CCC3(CC2)CN(C(=O)c2csc(C(C)C)n2)CCO3)c1Cl` [Example 29, 3-(2-Chloro-3-((4-(2-isopropylthiazole-4-carbonyl)-1-oxa-4,9-diazaspiro[5.5]undecan-9-yl)methyl)phenethoxy)-N-(2-(2-(5-hydroxy-3-oxo-3,4-dihydro-2H-benzo[b][1,4]oxazin-8-yl)ethylamino)ethyl)-N-propylpropanamide ditrifluoroacetate], at Adrenergic β2, the EC50 is 39.8 nM and the “β2 Intrinsic Activity” value was 0.9. In assay [1], this compound gave an IC50 of 1.26 nM.

Take `CCc1nc(C(=O)N2CCOC3(CCN(Cc4cccc(CCOCCC(=O)N(CC)CCNCCc5ccc(O)c6c5OCC(=O)N6)c4Cl)CC3)C2)cs1` [Example 30, 3-(2-Chloro-3-((4-(2-ethylthiazole-4-carbonyl)-1-oxa-4,9-diazaspiro[5.5]undecan-9-yl)methyl)phenethoxy)-N-ethyl-N-(2-(2-(5-hydroxy-3-oxo-3,4-dihydro-2H-benzo[b][1,4]oxazin-8-yl)ethylamino)ethyl)propanamide ditrifluoroacetate]: at Adrenergic β2, the EC50 is 7.94 nM and the “β2 Intrinsic Activity” value worked out at 0.8. The 50% inhibitory concentration (IC50) in assay [1] was 0.316 nM.

With `CCc1nc(C(=O)N2CCOC3(CCN(Cc4cccc(CCOCCC(=O)N(CCNCCc5ccc(O)c6c5OCC(=O)N6)[C@H](C)CC)c4Cl)CC3)C2)cs1` [Example 31, (R)—N-sec-Butyl-3-(2-chloro-3-((4-(2-ethylthiazole-4-carbonyl)-1-oxa-4,9-diazaspiro[5.5]undecan-9-yl)methyl)phenethoxy)-N-(2-(2-(5-hydroxy-3-oxo-3,4-dihydro-2H-benzo[b][1,4]oxazin-8-yl)ethylamino)ethyl)propanamide ditrifluoroacetate], on Adrenergic β2, the EC50 was 20 nM and the “β2 Intrinsic Activity” value is reported as 1.0. In addition, the IC50 in assay [1] was 0.398 nM.

As for `CCCCN(CCNCCc1ccc(O)c2c1OCC(=O)N2)C(=O)CCOCCc1cccc(CN2CCC3(CC2)CN(C(=O)c2csc(CC)n2)CCO3)c1Cl` [Example 32, N-Butyl-3-(2-chloro-3-((4-(2-ethylthiazole-4-carbonyl)-1-oxa-4,9-diazaspiro[5.5]undecan-9-yl)methyl)phenethoxy)-N-(2-(2-(5-hydroxy-3-oxo-3,4-dihydro-2H-benzo[b][1,4]oxazin-8-yl)ethylamino)ethyl)propanamide ditrifluoroacetate], at Adrenergic β2, the EC50 was 15.8 nM and the “β2 Intrinsic Activity” value was determined as 0.9. Further, the IC50 in assay [1] was 0.398 nM.

On to `CCc1nc(C(=O)N2CCOC3(CCN(Cc4cccc(CCOCCC(=O)N(CCNCCc5ccc(O)c6c5OCC(=O)N6)C5CCCC5)c4Cl)CC3)C2)cs1` [Example 33, 3-(2-Chloro-3-((4-(2-ethylthiazole-4-carbonyl)-1-oxa-4,9-diazaspiro[5.5]undecan-9-yl)methyl)phenethoxy)-N-cyclopentyl-N-(2-(2-(5-hydroxy-3-oxo-3,4-dihydro-2H-benzo[b][1,4]oxazin-8-yl)ethylamino)ethyl)propanamide ditrifluoroacetate], for which, at Adrenergic β2, the EC50 is 15.8 nM and the “β2 Intrinsic Activity” value was 1.0. This compound had an IC50 in assay [1] of 0.398 nM.
